Laboratory results from patent publication US7989393B2, “Methods of controlling algae with thaxtomin and thaxtomin compositions” (priority 2007, dated 2011).

How the values were obtained:
algae (mix) = assay: Water and algae mix in a test tube; format: cell-based, green algae; details: 10 mMol (2,840 ppm) in 2 ml water and algae mix
Protocol: Thaxtomin was added to water and algae in a test tube.
Metolachlor (2-chloro-N-(6-ethyl-o-tolyl)-N-[(1RS)-2-methoxy-1-methylethyl]acetamide) is a known pre-emergent herbicide commonly used to control annual grasses and some broadleaves such as Eastern black nightshade and pigweeds.

Oscillatoria spp. = assay: Bioactivity of purified thaxtomin verse CuSO4, algae growth bioassay; format: cell-based; design: key: ++ = visible death; + = growth inhibition; − = no visible growth inhibition; details: 2 ppm, two weeks
Protocol: (§1) Purified thaxtomin was used for a bioassay test and its efficacy evaluated and compared with copper sulphate, an active ingredient for many copper based algaecides. The bioassay was run for two weeks and inhibition of algae growth was evaluated.

Rhodymenia spp. = assay: as above; format: cell-based; design: key: ++ = visible death; + = growth inhibition; − = no visible growth inhibition; details: 2 ppm, two weeks
Protocol: as §1

Spirogyra spp. = assay: as above; format: cell-based; design: key: ++ = visible death; + = growth inhibition; − = no visible growth inhibition; details: 2 ppm, two weeks
Protocol: as §1

Batrachospermum spp. = assay: as above; format: cell-based; design: key: ++ = visible death; + = growth inhibition; − = no visible growth inhibition; details: 2 ppm, two weeks
Protocol: as §1

Oedogonium spp. = assay: as above; format: cell-based; design: key: ++ = visible death; + = growth inhibition; − = no visible growth inhibition; details: 2 ppm, two weeks
Protocol: as §1

the tested algae = assay: Purified thaxtomin versus copper sulphate bioassay (text summary of Example 5); format: cell-based; details: 2 ppm (commercial recommended rate); two weeks
Protocol: as §1

Row | SMILES | Results: appearance of water and algae mix (algae (mix)) | Bioactivity (inhibition of algae growth) (Oscillatoria spp.) | Bioactivity (inhibition of algae growth) (Rhodymenia spp.) | Bioactivity (inhibition of algae growth) (Spirogyra spp.) | Bioactivity (inhibition of algae growth) (Batrachospermum spp.) | Bioactivity (inhibition of algae growth) (Oedogonium spp.) | efficacy against the tested organisms (the tested algae)
1 | CCc1cccc(C)c1N(C(=O)CCl)C(C)COC (racemic) [Metolachlor, 2-chloro-N-(6-ethyl-o-tolyl)-N-[(1RS)-2-methoxy-1-methylethyl]acetamide] | did not show any algaestatic and/or algaecidal activity |  |  |  |  |  | 
2 | O=S(=O)([O-])[O-].[Cu+2] [CuSO4, copper sulphate] |  | − | − | + | − | − | not very effective
